The values that follow come from US12384769B2, “Heteroaryl-substituted aminoalkyl azole compounds as pesticides” (Elanco Animal Health GmbH, priority 2019, dated 2025).

Common to all, as to type: in vivo
Experiment [1] concerns Diabrotica balteata. Description: Diabrotica balteata spray test. The conditions noted are these: 168 h, 500 g/ha (=160 μg/well), wheat seeds, after 7 days, read-out: activity (efficacy, seedlings grown). An outline of the steps:
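Efficacy was read 7 days after infesting each unit with 10–20 banded cucumber beetle larvae, as % of seedlings growing like untreated, uninfested controls. Before infestation, wheat seeds germinated 1 day on agar (5 per well) were sprayed with the active ingredient. The active was formulated in acetone/DMF and diluted in water containing emulsifier.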

For experiment [2], the system named is Musca domestica strain WHO-N. Description: Musca domestica test (MUSCDO surface treatment & contact assay). The conditions noted are these: surface concentration 20 mg/m^2, glazed tile, 30 minutes exposure, 24 hours after contact, read-out: efficacy (mortality). The protocol:
Musca domestica Test (MUSCDO Surface Treatment & Contact Assay)
(§1) Solvent: Aceton+2000 ppm rapeseed oil methyl ester (RME)
In order to produce a sufficient, active ingredient containing solution it is necessary to solve the test compound in the solvent-mix (acetone at 2 mg/mL/RME 2000 ppm). This solution is pipetted onto a glazed tile and after evaporation of the acetone, adult flies of the species Musca domestica strain WHO—N are placed onto the dried surface. The exposure time is 30 minutes.
(§2) Mortality in percent (%) is determined 24 hours after contact of the insects to the treated surface. 100% mortality means that all tested insects are dead, whereas 0% means that no insect died.

Experiment [3] relates to Ctenocephalides felis. Description: Ctenocephalides felis oral test (CTECFE). The note with it: 48 h, 100 ppm in cattle blood, after 2 days. The method in brief:
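About 20 adult unfed fleas fed through parafilm on cattle blood held at 37° C and dosed with compound from a DMSO concentrate; flea chamber at room temperature. Percent mortality scored after 2 days.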

In experiment [4] the test system is Ctenocephalides felis. Description: Ctenocephalides felis in-vitro contact test, adult cat flea. The note with it: 5 μg/cm^2 (=500 g/ha), after 48 hours, read-out: activity (efficacy, fleas dead or moribund). An outline of the steps: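 Acetone solutions coated onto inner walls of glass tubes; 900 ppm gives 5 μg/cm^2. After drying, 5-10 adult Ctenocephalides felis per tube held 48 h at room temperature. Fleas then placed on 45-50° C. plate for up to 5 min; those unable to climb away scored dead or moribund, efficacy as % dead/moribund.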

For experiment [5], the system named is Aedes aegypti strain MONHEIM. The experiment is described as follows: Aedes aegypti test (AEDSAE surface treatment & contact assay). The note with it: 30 minutes exposure, 24 hours after contact, read-out: efficacy (mortality). The protocol: Aedes aegypti Test (AEDSAE Surface Treatment & Contact Assay)
as §1
In order to produce a sufficient, active ingredient containing solution it is necessary to solve the test compound in the solvent-mix (acetone at 2 mg/mL/RME 2000 ppm). This solution is pipetted onto a glazed tile and after evaporation of the acetone, adult mosquitoes of the species Aedes aegypti strain MONHEIM are placed onto the dried surface. The exposure time is 30 minutes.
as §2

Experiment [6] relates to Myzus persicae. Description: Myzus persicae oral test. The conditions noted are these: 120 h, after 5 days. The protocol:
Solvent: 100 parts by weight acetone
Afterwards the plates are sealed with parafilm through which a mixed population of the green peach aphid (Myzus persicae) can suck on the compound preparation.
After 5 days mortality in % is determined. 100% means all aphids have been killed and 0% means none of the aphids have been killed.

Experiment [7] relates to Boophilus microplus. The experiment is described as follows: Boophilus microplus injection test (BOOPMI Injection). The note with it: Rhipicephalus microplus, 168 h, injection into adult engorged female ticks, egg deposition after 7 days, read-out: activity (efficacy, infertile eggs). An outline of the steps: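 Adult engorged female ticks (5 per group) injected into the abdomen with 1 μL compound in DMSO, then held in a climate chamber. Fertile egg deposition scored after 7 days, with unclear eggs kept until hatching (~42 days). Efficacy 100% = all eggs infertile, 0% = all fertile.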

The subject of experiment [8] is Rhipicephalus microplus (strain Parkhurst, resistant against synthetic pyrethroids). The experiment is described as follows: Rhipicephalus microplus in-vitro contact test, larval cattle tick (BOOPMI Contact). The note with it: 5 μg/cm^2 (=500 g/ha), after 48 hours, read-out: activity (efficacy, larvae dead or moribund). An outline of the steps: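 Efficacy, expressed as percentage of larvae dead or moribund, is judged by negative geotactic behaviour 48 h after larvae (20-50 per tube) enter tubes whose inner walls carry a dried acetone film of compound, 5 μg/cm² at 900 ppm. Incubation: horizontal, 27 °C, 85% relative humidity.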

Take `C[C@H](Nc1nc2cc(C(F)(F)F)c(Cl)cc2o1)c1ncnn1-c1ncccn1` [Example I-001, 6-chloro-N-{(1S)-1-[1-(pyrimidin-2-yl)-1H-1,2,4-triazol-5-yl]ethyl}-5-(trifluoromethyl)-1,3-benzoxazol-2-amine]: in experiment [1], the pest or weed control at 160 µg/disc, 500 g/ha is 100%. In addition, the mortality at 20 mg/m2 in experiment [2] was in the range of 90 to 100%; in experiment [5] (surface concentration 20 mg/m^2, glazed tile), 90 to 100%. The same compound yielded a mortality at 100 ppm in experiment [3] of 100%. The pest or weed control at 5 µg/cm2, 5 µg/cm2 in experiment [4] is 100%. Also, in experiment [5] (surface concentration 4 mg/m^2, glazed tile), the mortality at 4 mg/m2 was 85 to 100%. For the same compound, in experiment [6], the mortality at 4 ppm came to 100%. In experiment [7] (4 μg/animal), the pest or weed control at 0.004 mg turned out to be 100%. Further, in experiment [7] (20 μg/animal), the pest or weed control at 0.02 mg turned out to be 100%. Further, the pest or weed control at 5 µg/cm2 in experiment [8] was 100%.
